In ChEMBL document CHEMBL5143564, “PES derivative PESA is a potent tool to globally profile cellular targets of PES” (Bioorg Med Chem Lett, 2022) one finds Activity, t1/2 and T1/2 data, which are given here for two compounds.

The source made the active and inactive calls. The calls are words filed in the database; no cut-off is given here.

Data set [1] relates to HepG2. Description: Cytotoxicity against human HepG2 cells measured after 72 hrs. The class given is functional, cell-based.
Data set [2] deals with HEK-293T. Nature of the data set: Cytotoxicity against HEK293T cells up to 20 uM measured after 24 hrs. The class given is toxicity, cell-based. Conditions: human.
The subject of data set [3] is DOHH-2. Nature of the data set: Up regulation of HSP70 expression in human DOHH-2 cells at 0.5 to 10 uM measured after 24 hrs by Western blot analysis. The class given is functional, cell-based. Conditions: dose 0.5-10 µM.
The species entered for data set [4] is Homo sapiens. Nature of the data set: Binding affinity to human HSP70 SBDalpha domain (537 to 610 residues) C574S mutant assessed as Cys603 adduct formation by size exclusion chromatography.
Data set [5] has as its system DOHH-2. Description: Induction of autophagy in human DOHH-2 cells assessed as change in transformation of LC3B1 to LC3B2 expression at 10 uM measured after 4 to 24 hrs by Western blot analysis. The following applies: time 4-24 hrs. The class given is functional, cell-based.
The species named for data set [6] is Homo sapiens. Description: Binding affinity to ADP-bound full-length human HSP70 assessed as Cys603 adduct formation by size exclusion chromatography.
For data set [7], the system named is DOHH-2. Nature of the data set: Induction of apoptosis in human DOHH-2 cells assessed as increase in cleaved PARP expression at 10 uM measured after 4 to 24 hrs by Western blot analysis. The class given is functional, cell-based. The following applies: time 4-24 hrs.
In data set [8] the test system is DOHH-2. Description: Induction of apoptosis in human DOHH-2 cells assessed as increase in cleaved caspase-3 expression at 10 uM measured after 4 to 24 hrs by Western blot analysis. The class given is functional, cell-based. The following applies: time 4-24 hrs.
For data set [9], the system named is DOHH-2. Nature of the data set: Induction of autophagy in human DOHH-2 cells assessed as reduction in p62 expression at 10 uM measured after 4 to 24 hrs by Western blot analysis. Conditions: time 4-24 hrs. The class given is functional, cell-based.
Data set [10] has as its system DOHH-2. Nature of the data set: Induction of autophagy in human DOHH-2 cells assessed as change in transformation of LC3B1 to LC3B2 expression at 0.5 to 10 uM measured after 24 hrs by Western blot analysis. The class given is functional, cell-based. The following applies: dose 0.5-10 µM.
In data set [11] the test system is DOHH-2. Nature of the data set: Induction of apoptosis in human DOHH-2 cells assessed as increase in cleaved caspase-3 expression at 0.5 to 10 uM measured after 24 hrs by Western blot analysis. The class given is functional, cell-based. Conditions: dose 0.5-10 µM.
For data set [12], the system named is MDA-MB-453. Description: Cytotoxicity against human MDA-MB-453 cells measured after 72 hrs. The class given is functional, cell-based.
Data set [13] concerns Jurkat. Description: Cytotoxicity against human Jurkat T cells up to 20 uM measured after 24 hrs. The class given is functional, cell-based.
Data set [14] has as its system DOHH-2. Description: Up regulation of HSP90alpha expression in human DOHH-2 cells at 10 uM measured after 4 to 24 hrs by Western blot analysis. The class given is functional, cell-based. Conditions: time 4-24 hrs.
Data set [15] deals with DOHH-2. Description: Induction of apoptosis in human DOHH-2 cells assessed as increase in cleaved PARP expression at 0.5 to 10 uM measured after 24 hrs by Western blot analysis. The class given is functional, cell-based. The following applies: dose 0.5-10 µM.
Data set [16] deals with DOHH-2. Description: Up regulation of HSP90alpha expression in human DOHH-2 cells at 0.5 to 10 uM measured after 24 hrs by Western blot analysis. The class given is functional, cell-based. The following applies: dose 0.5-10 µM.
The test system of data set [17] is Jurkat. Nature of the data set: Cytotoxicity against human Jurkat T cells measured after 72 hrs. The class given is functional, cell-based.
For data set [18], the system named is DOHH-2. Description: Up regulation of HSP70 expression in human DOHH-2 cells at 10 uM measured after 4 to 24 hrs by Western blot analysis. The class given is functional, cell-based. Conditions: time 4-24 hrs.
Data set [19] in a line: GSH reactivity in pH 7.4 buffer assessed as GSH adduct formation by measuring half life at 50 uM by near-UV absorbance spectra analysis. The class given is physicochemical. Conditions: pH 7.4, 50 µM.
The test system of data set [20] is DOHH-2. Description: Cytotoxicity against human DOHH-2 cells measured after 72 hrs. The class given is functional, cell-based.
The species entered for data set [21] is Homo sapiens. Description: Binding affinity to ADP-bound full-length human HSP70 assessed as cysteine adduct formation at SBDalpha domain by measuring half life at 1 mM by fluorescence spectra analysis.
Data set [22] concerns DOHH-2. Nature of the data set: Cytotoxicity against human DOHH-2 cells up to 20 uM measured after 24 hrs. The class given is functional, cell-based.
The subject of data set [23] is DOHH-2. Nature of the data set: Induction of autophagy in human DOHH-2 cells assessed as reduction in p62 expression at 0.5 to 10 uM measured after 24 hrs by Western blot analysis. The following applies: dose 0.5-10 µM. The class given is functional, cell-based.
In data set [24] the test system is DOHH-2. Description: Up regulation of HSP90alpha expression in human DOHH-2 cells at 0.5 to 12 uM measured after 24 hrs by Western blot analysis. The class given is functional, cell-based. The following applies: dose 0.5-12 µM.
A short description of data set [25]: GSH reactivity in pH 7.4 buffer assessed as GSH adduct formation at 1 mM by HPLC analysis. The following applies: pH 7.4, 1000 µM. The class given is physicochemical.
Data set [26] has as its system DOHH-2. Description: Induction of apoptosis in human DOHH-2 cells assessed as increase in cleaved PARP expression at 0.5 to 12 uM measured after 24 hrs by Western blot analysis. The following applies: dose 0.5-12 µM. The class given is functional, cell-based.
Data set [27] relates to DOHH-2. Description: Up regulation of HSP90alpha expression in human DOHH-2 cells at 12 uM measured after 4 to 24 hrs by Western blot analysis. The class given is functional, cell-based. Conditions: time 4-24 hrs.
Data set [28] relates to DOHH-2. Description: Induction of autophagy in human DOHH-2 cells assessed as reduction in p62 expression at 0.5 to 12 uM measured after 24 hrs by Western blot analysis. The class given is functional, cell-based. Conditions: dose 0.5-12 µM.
Data set [29] concerns DOHH-2. Nature of the data set: Induction of autophagy in human DOHH-2 cells assessed as change in transformation of LC3B1 to LC3B2 expression at 0.5 to 12 uM measured after 24 hrs by Western blot analysis. The class given is functional, cell-based. The following applies: dose 0.5-12 µM.
For data set [30], the system named is DOHH-2. Nature of the data set: Up regulation of HSP70 expression in human DOHH-2 cells at 0.5 to 12 uM measured after 24 hrs by Western blot analysis. The class given is functional, cell-based. The following applies: dose 0.5-12 µM.
Data set [31] deals with DOHH-2. Nature of the data set: Induction of apoptosis in human DOHH-2 cells assessed as increase in cleaved PARP expression at 12 uM measured after 4 to 24 hrs by Western blot analysis. The class given is functional, cell-based. Conditions: time 4-24 hrs.
Data set [32] is described as follows: GSH reactivity in pH 7.4 buffer assessed as GSH adduct formation by measuring molecular weight at 1 mM by Q-TOF LC/MS analysis. The following applies: pH 7.4, 1000 µM. The class given is physicochemical.
For data set [33], the system named is DOHH-2. Nature of the data set: Induction of autophagy in human DOHH-2 cells assessed as change in transformation of LC3B1 to LC3B2 expression at 12 uM measured after 4 to 24 hrs by Western blot analysis. The class given is functional, cell-based. The following applies: time 4-24 hrs.
The test system of data set [34] is DOHH-2. Nature of the data set: Up regulation of HSP70 expression in human DOHH-2 cells at 12 uM measured after 4 to 24 hrs by Western blot analysis. The class given is functional, cell-based. The following applies: time 4-24 hrs.
For data set [35], the system named is DOHH-2. Nature of the data set: Induction of apoptosis in human DOHH-2 cells assessed as increase in cleaved caspase-3 expression at 0.5 to 12 uM measured after 24 hrs by Western blot analysis. The class given is functional, cell-based. Conditions: dose 0.5-12 µM.
In data set [36] the test system is DOHH-2. Nature of the data set: Induction of autophagy in human DOHH-2 cells assessed as reduction in p62 expression at 12 uM measured after 4 to 24 hrs by Western blot analysis. Conditions: time 4-24 hrs. The class given is functional, cell-based.
For data set [37], the system named is DOHH-2. Nature of the data set: Induction of apoptosis in human DOHH-2 cells assessed as increase in cleaved caspase-3 expression at 12 uM measured after 4 to 24 hrs by Western blot analysis. The class given is functional, cell-based. The following applies: time 4-24 hrs.

With `NS(=O)(=O)C#Cc1cccc(Cl)c1`, the result in data set [1], in [3], in [4], in [5], in [6] and in [7] was Active. In addition, the outcome in data set [8], in data set [9], in data set [10], in data set [11], in data set [12] and in [13] was Active. Besides, the outcome in [14], in data set [15], in data set [16], in data set [17], in [18] and in data set [20] was Active. The outcome in data set [22] and in data set [23] was Active. Moreover, the Activity entry in [2] is reported as “Non-Toxic”. Moreover, in data set [19], the t1/2 turned out to be 2.97 min. Further, in data set [21], the T1/2 turned out to be 59.9 min.

Take `NS(=O)(=O)C#Cc1ccccc1`: the outcome in data set [24], in data set [1], in data set [26], in data set [4], in data set [27] and in data set [6] was Active. The result in data set [28], in data set [12], in [13], in data set [29], in data set [30] and in data set [31] was Active. Moreover, the result in [17], in data set [33], in data set [34], in [20], in data set [35] and in data set [36] was Active. Also, the outcome in [37] and in [22] was Active. Moreover, the Activity result in [25] was “Active”; in data set [2], “Non-Toxic”; in data set [32], 489 Da. Further, in data set [19], the t1/2 came out at 12.26 min. In addition, the T1/2 in [21] was 272 min.
